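Exposure lasted 48 hours, with cells grown in 96-well plates and compounds tested at five concentrations. TGI marks complete inhibition of growth.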
What was measured:
Test in all cases: growth of human tumour cells (NCI), 48 h
SF-295 CNS = system: SF-295 CNS
OVCAR-3 ovarian = system: OVCAR-3 ovarian
HCT-116 colon = system: HCT-116 colon
UACC-62 melanoma = system: UACC-62 melanoma
SNB-75 CNS = system: SNB-75 CNS
TK-10 renal = system: TK-10 renal
RPMI-8226 leukemia = system: RPMI-8226 leukemia
SK-OV-3 ovarian = system: SK-OV-3 ovarian
786-0 renal = system: 786-0 renal
MDA-N = system: MDA-N
LOX IMVI melanoma = system: LOX IMVI melanoma
NCI/ADR-RES ovarian = system: NCI/ADR-RES ovarian
COLO 205 colon = system: COLO 205 colon
UO-31 renal = system: UO-31 renal
SK-MEL-2 melanoma = system: SK-MEL-2 melanoma
UACC-257 melanoma = system: UACC-257 melanoma
SW-620 colon = system: SW-620 colon
SK-MEL-28 melanoma = system: SK-MEL-28 melanoma
SNB-19 CNS = system: SNB-19 CNS
OVCAR-5 ovarian = system: OVCAR-5 ovarian
HCC-2998 colon = system: HCC-2998 colon
DU-145 prostate = system: DU-145 prostate
HOP-62 NSCLC = system: HOP-62 NSCLC
HS 578T breast = system: HS 578T breast
SR leukemia = system: SR leukemia
SF-268 CNS = system: SF-268 CNS
HT29 colon = system: HT29 colon
MALME-3M melanoma = system: MALME-3M melanoma
A549 NSCLC = system: A549 NSCLC
MDA-MB-231 breast = system: MDA-MB-231 breast
BT-549 breast = system: BT-549 breast
HOP-92 NSCLC = system: HOP-92 NSCLC
HCT-15 colon = system: HCT-15 colon
M14 melanoma = system: M14 melanoma
IGROV1 ovarian = system: IGROV1 ovarian
MCF7 breast = system: MCF7 breast
T-47D breast = system: T-47D breast
ACHN renal = system: ACHN renal
NCI-H226 lung = system: NCI-H226 lung
EKVX NSCLC = system: EKVX NSCLC
MOLT-4 leukemia = system: MOLT-4 leukemia
KM12 colon = system: KM12 colon
OVCAR-4 ovarian = system: OVCAR-4 ovarian
NCI-H460 lung = system: NCI-H460 lung
HL-60(TB) leukemia = system: HL-60(TB) leukemia
CCRF-CEM leukemia = system: CCRF-CEM leukemia
NCI-H23 lung = system: NCI-H23 lung
U251 CNS = system: U251 CNS
PC-3 prostate = system: PC-3 prostate
SK-MEL-5 melanoma = system: SK-MEL-5 melanoma
NCI-H522 lung = system: NCI-H522 lung
RXF 393 renal = system: RXF 393 renal
SN12C renal = system: SN12C renal
MDA-MB-435 = system: MDA-MB-435
OVCAR-8 ovarian = system: OVCAR-8 ovarian
CAKI-1 renal = system: CAKI-1 renal

`COc1ccc(CCCCNCc2cccc(CNCCCCc3ccc(OC)cc3)c2)cc1` gave a TGI (SF-295 CNS) of 3.77 µM, a TGI (OVCAR-3 ovarian) of 3.37 µM and a TGI (HCT-116 colon) of 3.88 µM. For the same compound, the TGI (UACC-62 melanoma) was 3.55 µM, the TGI (SNB-75 CNS) was 3.38 µM and the TGI (TK-10 renal) was 5.02 µM. The TGI (RPMI-8226 leukemia) was > 100 µM, the TGI (SK-OV-3 ovarian) was 4.02 µM and the TGI (786-0 renal) was 4.51 µM. For the same compound, the TGI (MDA-N) was 4.25 µM, the TGI (LOX IMVI melanoma) was 3.23 µM and the TGI (NCI/ADR-RES ovarian) was 3.19 µM. For the same compound, the TGI (COLO 205 colon) was 5.22 µM, the TGI (UO-31 renal) was 2.68 µM and the TGI (SK-MEL-2 melanoma) was 3.53 µM. For the same compound, the TGI (UACC-257 melanoma) was > 19.7 µM, the TGI (SW-620 colon) was 3.28 µM and the TGI (SK-MEL-28 melanoma) was 3.73 µM. It also gave a TGI (SNB-19 CNS) of 3.29 µM, a TGI (OVCAR-5 ovarian) of 4.33 µM and a TGI (HCC-2998 colon) of 0.922 µM. It also gave a TGI (DU-145 prostate) of 3.54 µM, a TGI (HOP-62 NSCLC) of 4.99 µM and a TGI (HS 578T breast) of 3.27 µM. For the same compound, the TGI (SR leukemia) was > 100 µM, the TGI (SF-268 CNS) was 3.35 µM and the TGI (HT29 colon) was 3.16 µM. The TGI (MALME-3M melanoma) was 3.6 µM, the TGI (A549 NSCLC) was 4.86 µM and the TGI (MDA-MB-231 breast) was 3.6 µM. For the same compound, the TGI (BT-549 breast) was 3.36 µM, the TGI (HOP-92 NSCLC) was 2.91 µM and the TGI (HCT-15 colon) was 3.55 µM. For the same compound, the TGI (M14 melanoma) was 3.5 µM, the TGI (IGROV1 ovarian) was 3.32 µM and the TGI (MCF7 breast) was 3.06 µM. The TGI (T-47D breast) was 4.35 µM, the TGI (ACHN renal) was 3.47 µM and the TGI (NCI-H226 lung) was 2.33 µM. For the same compound, the TGI (EKVX NSCLC) was 3.42 µM, the TGI (MOLT-4 leukemia) was 6.86 µM and the TGI (KM12 colon) was 3.69 µM. The TGI (OVCAR-4 ovarian) was 3.98 µM, the TGI (NCI-H460 lung) was > 19.7 µM and the TGI (HL-60(TB) leukemia) was 3.98 µM. It also gave a TGI (CCRF-CEM leukemia) of 4.47 µM, a TGI (NCI-H23 lung) of 3.37 µM and a TGI (U251 CNS) of 3.71 µM. For the same compound, the TGI (PC-3 prostate) was 3.55 µM, the TGI (SK-MEL-5 melanoma) was 3.25 µM and the TGI (NCI-H522 lung) was 3.5 µM. It also gave a TGI (RXF 393 renal) of 3.28 µM, a TGI (SN12C renal) of 3.64 µM and a TGI (MDA-MB-435) of 3.63 µM. It also gave a TGI (OVCAR-8 ovarian) of 3.23 µM and a TGI (CAKI-1 renal) of 3.63 µM.

— PubChem BioAssay (NCI)
